Reference: US12344631B2, “C17 polar-substituted heteroaromatic synthetic triterpenoids and methods of use thereof” (REATA PHARMACEUTICALS, INC., priority 2019, dated 2025)

Key:
[1] = test system: AREc32 reporter cell line (antioxidant response element of rat Gsta2, Nrf2 target gene); experiment: AREc32 luciferase reporter activation; assay type: cell-based, human; details: for EC (2-fold): human, Arec32, 19 h, concentration increasing luminescence signal 2-fold above vehicle, nineteen hours, read-out: AREc32 EC2X (nM) (Mean ± SD); for AREc32 EC2X Relative to RTA 402 (fold) (Mean ± SD): average of ratios from replicate experiments, benchmark RTA 402
Procedure: […] The effect of several compounds disclosed herein on luciferase reporter activation was assessed in the AREc32 reporter cell line (see Table 10 and Table 11). This cell line is derived from human breast carcinoma MCF-7 cells and is stably transfected with a luciferase reporter gene under the transcriptional control of eight copies of the antioxidant response element from the rat Gsta2 gene, an Nrf2 target gene ([…] et al., 1990). […] Twenty-four hours after plating, cells were treated with vehicle (DMSO) or test compounds at concentrations ranging from 0.03 to 1000 nM for nineteen hours. Media was removed and 100 μL of 1:1 mixture of the One-Glo Luciferase assay reagent and culture medium was added to each well. After incubation for 5 min at room temperature, the luminescence signal was measured on a PHERAstar plate reader. The EC2X value was determined using Excel and GraphPad Prism software. The fold increase in luminescence signal for cells treated with each concentration of compound relative to cells treated with vehicle was determined and a dose-response curve was generated. The dose-response curve was fit using nonlinear regression analysis and used to extrapolate the EC2X value.

RAW 264.7 cells = experiment: Nitric oxide suppression assay (IFNγ-induced NO production); assay type: cell-based, mouse; details: for IC50: Mus musculus, RAW264.7, RAW 264.7 cells, 2 h pretreatment, 20 ng/mL interferon gamma 24 h, nitrite by Griess, read-out: NO IC50 (nM) (Mean ± SD); for NO IC50 Relative to RTA 402 (fold) (Mean ± SD): average of ratios from replicate experiments, benchmark RTA 402
Procedure: Tissue Culture. RAW 264.7, a mouse macrophage cell line, was obtained from American Type Culture Collection (Manassas VA) and maintained in the log phase of growth in Roswell Park Memorial Institute Medium 1640 (RPMI 1640) supplemented with 10% heat inactivated fetal bovine serum (FBS) and 1% penicillin-streptomycin. Cells were cultured and maintained in a humidified incubator at 37° C. under 5% CO2. Cells were sub-cultured every 3 days. […] All cell culture supplies were obtained from Life Technologies (Grand Island, NY) and VWR (Radnor, PA). Nitric Oxide Suppression Assay. RAW 264.7 cells were plated 1 day in advance of experimental treatments at a concentration of 30,000 cells per well onto Falcon-96 well clear bottom plates (Corning, NY) in a total volume of 200 μL per well using RPMI 1640 supplemented with 0.5% fetal bovine serum and 1% penicillin-streptomycin. The next day, cells were pretreated with compounds serially diluted from 1000× stocks. All compounds were dissolved in dimethyl sulfoxide (DMSO) at 10 mM stock solutions. Compounds were subsequently diluted in DMSO and RPMI 1640. Each well received a final concentration of 0.1% DMSO. Cells were pretreated for 2 hours and incubation at 37° C., followed by treatment with 20 ng/mL of interferon gamma (R&D Systems, Minneapolis, MN) per well for 24 hours. […] Afterwards, 50 μL of cell culture supernatant was transferred from each well into a new Falcon-96 well clear bottom plate. […] Afterwards, air bubbles were removed using ethanol vapor and absorbance was measured using a Spectramax M2e plate reader with a wavelength set to 525 nm. Viability was assessed using WST-1 cell proliferation reagent from Roche (Basel, Switzerland). After media was removed for the Nitric Oxide suppression assay, 15 μL of WST-1 reagent was added to each well of cells. Plates were briefly mixed on an orbital shaker and the cells were incubated at 37° C. for 30 minutes. Absorbance was measured using a Spectramax M2e plate reader with wavelengths set to 440 nm and 700 nm. For the ability of compounds to suppress the increase in nitric oxide release caused by interferon gamma, the absolute amount of nitrite that was produced in each well was extrapolated from the nitrite standards using a linear regression fit. All values were then normalized to the DMSO-interferon gamma treated wells and plotted as percent nitric oxide. IC50 values were calculated with a dependence on WST1 viability using Excel and/or GraphPad Prism (San Diego, CA).

[2] = test system: AML-12 hepatocyte cell line; experiment: Glutathione assay (total glutathione, GSH-Glo); assay type: cell-based, mouse
Procedure: The effect of compound treatment on total glutathione levels was evaluated in the mouse AML-12 hepatocyte cell line. Glutathione—a tripeptide consisting of cysteine, glutamate, and glycine—is the major thiol-containing protein within the cell and regulates cellular redox balance. Glutathione also plays important roles in detoxification, protein glutathionylation, and iron-sulfur cluster biogenesis (Bachhawat and Yadav, 2018). Nrf2 regulates the expression of many genes involved in glutathione synthesis and metabolism, including both subunits of glutamate cysteine ligase (GCL), the enzyme that catalyzes the rate limiting step of glutathione biosynthesis (Thimmulappa et al., 2002). […] The next day, cells were treated with vehicle (DMSO) or test compound (0.03 nM to 1000 nM). Each well received a final concentration of 0.1% DMSO. Cells were incubated at 37° C., 5% CO2 for 24 hours. Total glutathione concentrations were measured using the GSH-Glo Glutathione Assay kit (Promega) according to the manufacturer's instructions. Briefly, a standard curve was prepared by serially diluting the provided glutathione solution. […] After a 30-minute incubation at room temperature, 100 μL of Luciferin detection reagent was added to all sample and standard wells and incubated for 15 minutes. Luminescence was measured using a PHERAstar plate reader. The EC50 value was determined using Excel and GraphPad Prism software. The basal concentration of glutathione was set to 0% and the highest concentration of glutathione produced following treatment with a test compound was set to 100% and a dose-response curve was generated. The dose-response curve was fit using nonlinear regression analysis and used to extrapolate the EC50 value.

| Structure (SMILES) | EC (2-fold) [1] | IC50 (RAW 264.7 cells) | NO IC50 Relative to RTA 402 (fold) (Mean ± SD) (RAW 264.7 cells) | AREc32 EC2X Relative to RTA 402 (fold) (Mean ± SD) [1] | EC50 ([2]; Mus musculus, AML12, AML-12 cells, 24 hours, total glutathione, read-out: GSH EC50 (nM) (Mean ± SD)) | GSH EC50 Relative to RTA 402 (fold) (Mean ± SD) ([2]; benchmark RTA 402) |
| --- | --- | --- | --- | --- | --- | --- |
| Cc1nnc([C@]23CCC(C)(C)C[C@H]2[C@H]2C(=O)C=C4[C@@]5(C)C=C(C#N)C(=O)[C@@H](C)[C@@H]5CC[C@@]4(C)[C@]2(C)CC3)o1 [CC4, reference compound] | 8.12 ± 3.53 nM | 0.66 ± 0.06 nM | 0.51 ± 0.02 fold |  |  |  |
| CC1(C)CC[C@]2(c3nnc(C(F)(F)F)o3)CC[C@]3(C)[C@H](C(=O)C=C4[C@@]5(C)C=C(C#N)C(=O)C(C)(C)[C@@H]5CC[C@]43C)[C@@H]2C1 [Compound T45] | 29.1 ± 2.09 nM | 12.9 ± 6.38 nM | 3.81 ± 0.34 fold | 1.95 ± 0.57 fold | 8 ± 1.37 nM | 4.14 ± 0.35 fold |
| CC1(C)CC[C@]2(c3nc(CC4CC4)no3)CC[C@]3(C)[C@H](C(=O)C=C4[C@@]5(C)C=C(C#N)C(=O)C(C)(C)[C@@H]5CC[C@]43C)[C@@H]2C1 [Compound T30] | 64.5 nM | 4.82 nM | 2.97 fold | 4.19 fold |  |  |
| C[C@@H]1C(=O)C(C#N)=C[C@]2(C)C3=CC(=O)[C@@H]4[C@@H]5CC(C)(C)CC[C@]5(c5noc(CF)n5)CC[C@@]4(C)[C@]3(C)CC[C@@H]12 [Compound T39] | 1.88 nM | 1.98 nM | 0.42 fold | 0.20 fold |  |  |
| CC(=O)OCCn1nnc([C@]23CCC(C)(C)C[C@H]2[C@H]2C(=O)C=C4[C@@]5(C)C=C(C#N)C(=O)C(C)(C)[C@@H]5CC[C@@]4(C)[C@]2(C)CC3)n1 [Compound T8] |  | 0.64 nM | 0.41 fold |  |  |  |
| CC1(C)CC[C@]2(c3nc(C(C)(C)C)no3)CC[C@]3(C)[C@H](C(=O)C=C4[C@@]5(C)C=C(C#N)C(=O)C(C)(C)[C@@H]5CC[C@]43C)[C@@H]2C1 [Compound T28] |  | 22.3 nM | 13.75 fold |  |  |  |
| CC(C)c1noc([C@]23CCC(C)(C)C[C@H]2[C@H]2C(=O)C=C4[C@@]5(C)C=C(C#N)C(=O)C(C)(C)[C@@H]5CC[C@@]4(C)[C@]2(C)CC3)n1 [Compound T27] |  | 6.03 nM | 3.72 fold |  |  |  |
| CCNC(=O)NCCc1noc([C@]23CCC(C)(C)C[C@H]2[C@H]2C(=O)C=C4[C@@]5(C)C=C(C#N)C(=O)C(C)(C)[C@@H]5CC[C@@]4(C)[C@]2(C)CC3)n1 [Compound T18] |  | 1.33 nM | 0.86 fold |  |  |  |
| COCCc1noc([C@]23CCC(C)(C)C[C@H]2[C@H]2C(=O)C=C4[C@@]5(C)C=C(C#N)C(=O)C(C)(C)[C@@H]5CC[C@@]4(C)[C@]2(C)CC3)n1 [Compound T15] |  | 0.6 ± 0.05 nM | 0.38 ± 0.04 fold |  |  |  |
| CC1(C)CC[C@]2(c3nc(C4CCC4)no3)CC[C@]3(C)[C@H](C(=O)C=C4[C@@]5(C)C=C(C#N)C(=O)C(C)(C)[C@@H]5CC[C@]43C)[C@@H]2C1 [Compound T31] |  | 9.34 nM | 5.76 fold |  |  |  |
| CC1(C)CC[C@]2(c3nc(C4CCCC4)no3)CC[C@]3(C)[C@H](C(=O)C=C4[C@@]5(C)C=C(C#N)C(=O)C(C)(C)[C@@H]5CC[C@]43C)[C@@H]2C1 [Compound T32] |  | 20.8 nM | 12.84 fold |  |  |  |
| CC1(C)CC[C@]2(c3nc(C4CCCCC4)no3)CC[C@]3(C)[C@H](C(=O)C=C4[C@@]5(C)C=C(C#N)C(=O)C(C)(C)[C@@H]5CC[C@]43C)[C@@H]2C1 [Compound T33] |  | 25.6 nM | 15.81 fold |  |  |  |
| CC1(C)CC[C@]2(c3nc(CO)no3)CC[C@]3(C)[C@H](C(=O)C=C4[C@@]5(C)C=C(C#N)C(=O)C(C)(C)[C@@H]5CC[C@]43C)[C@@H]2C1 [Compound T42] | 2.58 nM | 0.44 nM | 0.32 fold | 0.26 fold |  |  |
| C[C@@H]1C(=O)C(C#N)=C[C@]2(C)C3=CC(=O)[C@@H]4[C@@H]5CC(C)(C)CC[C@]5(c5nnc(CF)o5)CC[C@@]4(C)[C@]3(C)CC[C@@H]12 [Compound T38] | 3.95 ± 1.12 nM | 0.46 ± 0.02 nM | 0.20 ± 0.02 fold | 0.43 ± 0.14 fold |  |  |
| CC(=O)NCCc1noc([C@]23CCC(C)(C)C[C@H]2[C@H]2C(=O)C=C4[C@@]5(C)C=C(C#N)C(=O)C(C)(C)[C@@H]5CC[C@@]4(C)[C@]2(C)CC3)n1 [Compound T19] |  | 0.94 nM | 0.60 fold |  |  |  |
| CCCc1noc([C@]23CCC(C)(C)C[C@H]2[C@H]2C(=O)C=C4[C@@]5(C)C=C(C#N)C(=O)C(C)(C)[C@@H]5CC[C@@]4(C)[C@]2(C)CC3)n1 [Compound T26] |  | 7.82 nM | 4.83 fold |  |  |  |
| CC1(C)CC[C@]2(c3nc(C4CC4)no3)CC[C@]3(C)[C@H](C(=O)C=C4[C@@]5(C)C=C(C#N)C(=O)C(C)(C)[C@@H]5CC[C@]43C)[C@@H]2C1 [Compound T29] | 43.7 nM | 4.03 nM | 2.49 fold | 2.84 fold |  |  |
| COC(=O)NCCc1noc([C@]23CCC(C)(C)C[C@H]2[C@H]2C(=O)C=C4[C@@]5(C)C=C(C#N)C(=O)C(C)(C)[C@@H]5CC[C@@]4(C)[C@]2(C)CC3)n1 [Compound T17] |  | 0.75 nM | 0.48 fold |  |  |  |
| CC(=O)OCCc1noc([C@]23CCC(C)(C)C[C@H]2[C@H]2C(=O)C=C4[C@@]5(C)C=C(C#N)C(=O)C(C)(C)[C@@H]5CC[C@@]4(C)[C@]2(C)CC3)n1 [Compound T14] |  | 0.48 nM | 0.31 fold |  |  |  |
| COCCn1nnc([C@]23CCC(C)(C)C[C@H]2[C@H]2C(=O)C=C4[C@@]5(C)C=C(C#N)C(=O)C(C)(C)[C@@H]5CC[C@@]4(C)[C@]2(C)CC3)n1 [Compound T9] |  | 1.27 nM | 0.82 fold |  |  |  |
